# Test results from patent publication US20230036911A1, “CULTURE SYSTEMS FOR THE EFFICIENT PRODUCTION OF GENE TRANSFER VECTORS” (Greffex, Inc., priority 2019, published 2023).
# Experiments:
# HEK293-type cells [1] = assay: Cellular DNA content by Vybrant staining and flow cytometry of cultured HEK293-type cells; format: cell-based, human; conditions: ascorbic acid 5 µg/ml, 24 hrs of culture, versus culture in the absence of ascorbic acid
# Experimental: HEK293-type cells were taken from a working cell bank and were cultured in an appropriate tissue culture vessel in an appropriate tissue culture medium both known by a person skilled in the art. They were expanded at appropriate conditions, such 37° C., 5% CO2. Cell growth and density was monitored daily. One day after cellular confluency was reached the cells were harvested by methods known by a person skilled in the art. The harvested HEK293-type cells were diluted in tissue culture medium and reseeded in an appropriate tissue culture vessel in and appropriate tissue culture medium. To one set of HEK293-type cells ascorbic acid was added at a final concentration of 5 µg/ml. After 24 hrs of culture, the cells were harvested and stained for DNA content by Vybrant (Invitrogen) following the manufacturers protocols. The cells were analyzed by fluorescence on a fluorescence activate cell analyzer (Beckman-Coulter Cytomics FC500).
# HEK293-type cells [2] = assay: Production (encapsidation) of the fully deleted helper virus independent Adenoviral vector fdhiAdGFP, read out as GFP-expressing cells after infection with supernatant; format: cell-based, human
# From the text: In the present example, the use of ascorbic acid composition exemplified by its used for the production of DNA virus, such as, but not limited to, a fully deleted helper virus independent Adenoviral vector. The vector production systems is comprised of three components (as exemplified in FIG. 1): (i) The GreVac module is packaged into the vector. It carries an expression cassette for a transgene, such as the green fluorescent protein, (cytomegalovirus immediate early promotor/enhancer / transgene / human growth hormone poly-adenylation sequence) flanked by ITRs and Ψ sequences, and is called fdhiAdGFP. […]
# HEK293-type cells were taken from the working cell bank and were cultured in an appropriate tissue culture vessel in an appropriate tissue culture medium both known by someone experienced in the art. […] Cell growth and density were monitored daily by light microscopy. […]
# To measure the efficiency of encapsidation, HEK293-type cells in culture were infected with defined volumes of the Adenoviral vector containing supernatants. […] Then they were harvested and examined for the extent of green fluorescence on a fluorescence activate cell analyzer (Beckman-Coulter Cytomics FC500) as an indicator of the number of infectious adenoviral particles released from the production cells.
smiles,measurement,setting,value
O=C1O[C@H]([C@@H](O)CO)C(O)=C1O [ascorbic acid],levels of DNA content in cells,HEK293-type cells [1],increased levels of DNA
same,percentage of cells in the S and G2 stages of the cell cycle,HEK293-type cells [1],a larger percentage of cells had entered the S and G2 stages of the cell cycle
same,rate of encapsidation of a gene transfer vector,"HEK293-type cells [2]; ascorbic acid added to production cells, conclusion from the studies",increased the rate of encapsidation
same,number of infected (GFP-expressing) cells after infection with Adenoviral vector containing supernatant,"HEK293-type cells [2]; production cells with ascorbic acid 5 µg/ml, 5 days of production, transduced cells read after 2 days, versus no ascorbic acid",significantly larger number of infected cells
